Laboratory results published in PMC9403976, “Elucidating the path to Plasmodium prolyl-tRNA synthetase inhibitors that overcome halofuginone resistance” (Nature Communications, 2022).
pIC50: −log10 of the molar value. Several values for one entry are separate records, joined by “and”; a condition that tells them apart may be missing. Equal values may be shown once. Read-outs that look alike come from different tables or passages of the source.

Legend:
HsProRS = HsProRS (Homo sapiens, UniProt P07814); test: TR-FRET ligand displacement assay with tracer MAT379 (CoraFluor-1-Halo and anti-His6 antibody formats); format: binding; design: made in house; host or cells: E. coli SoluBL-21; details: for TR-FRET dose-response, normalized signal (SI Fig 11): individual replicates
Chain of HsProRS (P07814 996-1512): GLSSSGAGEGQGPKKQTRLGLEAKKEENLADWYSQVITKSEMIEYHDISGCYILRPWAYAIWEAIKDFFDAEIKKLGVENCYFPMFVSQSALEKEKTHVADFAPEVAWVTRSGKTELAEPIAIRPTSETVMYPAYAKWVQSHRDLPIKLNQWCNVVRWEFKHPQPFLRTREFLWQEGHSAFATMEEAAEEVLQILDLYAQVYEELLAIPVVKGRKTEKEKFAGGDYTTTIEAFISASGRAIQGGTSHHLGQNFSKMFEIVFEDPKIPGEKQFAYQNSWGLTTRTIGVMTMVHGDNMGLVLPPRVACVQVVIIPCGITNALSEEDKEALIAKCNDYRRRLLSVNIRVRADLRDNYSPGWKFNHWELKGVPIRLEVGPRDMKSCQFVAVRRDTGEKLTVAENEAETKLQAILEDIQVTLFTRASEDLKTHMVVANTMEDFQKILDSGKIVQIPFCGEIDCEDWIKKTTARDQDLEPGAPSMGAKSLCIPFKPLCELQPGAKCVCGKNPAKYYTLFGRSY

PfcProRS = target: T1, PfcProRS (Plasmodium falciparum, UniProt Q8I5R7); format: binding; details: single replicates
T1 construct: made in house; host or cells: E. coli SoluBL-21
T1 sequence (Q8I5R7 249-746): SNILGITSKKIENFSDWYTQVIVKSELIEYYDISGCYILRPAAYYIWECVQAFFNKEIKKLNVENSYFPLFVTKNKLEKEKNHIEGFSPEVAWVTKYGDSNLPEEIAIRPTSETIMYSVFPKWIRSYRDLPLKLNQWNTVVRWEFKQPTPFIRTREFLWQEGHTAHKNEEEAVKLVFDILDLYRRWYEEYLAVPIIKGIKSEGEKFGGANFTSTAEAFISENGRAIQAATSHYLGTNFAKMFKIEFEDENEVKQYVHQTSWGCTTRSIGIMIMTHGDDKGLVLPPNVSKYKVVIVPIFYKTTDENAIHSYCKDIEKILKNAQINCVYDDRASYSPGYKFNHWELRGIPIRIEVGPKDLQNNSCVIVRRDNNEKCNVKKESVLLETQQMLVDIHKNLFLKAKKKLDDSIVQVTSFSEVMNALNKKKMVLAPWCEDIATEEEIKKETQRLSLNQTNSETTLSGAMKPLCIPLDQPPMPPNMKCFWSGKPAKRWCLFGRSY

## NCC1CCN(C(=O)Nc2nccnc2C(=O)NC2Cc3ccccc3C2)CC1 [compound 10]
HsProRS
  pIC50: < 5.00
HsProRS; HsProRS (KD [nM]) + 100 μM proline mean, + 100 μM proline
  Kd: 1360 nM
HsProRS; Log[inhibitor] (M) -5.000
  normalized TR-FRET ligand displacement signal, dose-response replicates (SI Fig 6): 7.52E-01 and 7.79E-01 and 7.62E-01
  TR-FRET dose-response, normalized signal (SI Fig 11): 6.05E-01 and 5.95E-01 and 6.36E-01
HsProRS; Log[inhibitor] (M) -5.301
  normalized TR-FRET ligand displacement signal, dose-response replicates (SI Fig 6): 8.20E-01 and 8.88E-01 and 8.92E-01
  TR-FRET dose-response, normalized signal (SI Fig 11): 6.96E-01 and 7.22E-01 and 7.09E-01
HsProRS; Log[inhibitor] (M) -5.601
  normalized TR-FRET ligand displacement signal, dose-response replicates (SI Fig 6): 9.12E-01 (2×) and 9.52E-01
  TR-FRET dose-response, normalized signal (SI Fig 11): 8.44E-01 and 7.94E-01 and 8.38E-01
HsProRS; Log[inhibitor] (M) -5.904
  normalized TR-FRET ligand displacement signal, dose-response replicates (SI Fig 6): 1.12E+00 and 9.84E-01 and 8.91E-01
  TR-FRET dose-response, normalized signal (SI Fig 11): 8.92E-01 and 8.20E-01 and 8.24E-01
HsProRS; Log[inhibitor] (M) -6.208
  normalized TR-FRET ligand displacement signal, dose-response replicates (SI Fig 6): 9.97E-01 and 8.76E-01 and 9.90E-01
  TR-FRET dose-response, normalized signal (SI Fig 11): 8.69E-01 and 8.29E-01 and 9.13E-01
HsProRS; Log[inhibitor] (M) -6.509
  normalized TR-FRET ligand displacement signal, dose-response replicates (SI Fig 6): 9.61E-01 and 1.04E+00 and 9.10E-01
  TR-FRET dose-response, normalized signal (SI Fig 11): 9.27E-01 and 8.13E-01 and 9.47E-01
HsProRS; Log[inhibitor] (M) -6.796
  normalized TR-FRET ligand displacement signal, dose-response replicates (SI Fig 6): 1.04E+00 and 1.06E+00 and 1.01E+00
  TR-FRET dose-response, normalized signal (SI Fig 11): 9.41E-01 and 8.80E-01 and 8.81E-01
HsProRS; Log[inhibitor] (M) -7.108
  normalized TR-FRET ligand displacement signal, dose-response replicates (SI Fig 6): 1.05E+00 and 9.51E-01 and 1.07E+00
  TR-FRET dose-response, normalized signal (SI Fig 11): 8.72E-01 and 9.00E-01 and 8.74E-01
HsProRS; Log[inhibitor] (M) -7.409
  normalized TR-FRET ligand displacement signal, dose-response replicates (SI Fig 6): 8.85E-01 and 9.14E-01 and 8.87E-01
  TR-FRET dose-response, normalized signal (SI Fig 11): 8.90E-01 and 8.97E-01 and 8.75E-01
HsProRS; Log[inhibitor] (M) -7.710
  normalized TR-FRET ligand displacement signal, dose-response replicates (SI Fig 6): 9.64E-01 (2×) and 8.88E-01
  TR-FRET dose-response, normalized signal (SI Fig 11): 8.83E-01 and 8.58E-01 and 9.38E-01
HsProRS; Log[inhibitor] (M) -8.000
  normalized TR-FRET ligand displacement signal, dose-response replicates (SI Fig 6): 9.97E-01 and 1.02E+00 and 9.70E-01
  TR-FRET dose-response, normalized signal (SI Fig 11): 9.01E-01 and 9.27E-01 and 9.34E-01
HsProRS; Log[inhibitor] (M) -8.301
  normalized TR-FRET ligand displacement signal, dose-response replicates (SI Fig 6): 9.79E-01 and 9.25E-01 and 8.62E-01
  TR-FRET dose-response, normalized signal (SI Fig 11): 8.32E-01 and 8.76E-01 and 8.86E-01
HsProRS; Log[inhibitor] (M) -8.602
  normalized TR-FRET ligand displacement signal, dose-response replicates (SI Fig 6): 1.04E+00 and 9.88E-01 and 8.85E-01
  TR-FRET dose-response, normalized signal (SI Fig 11): 8.91E-01 and 9.03E-01 and 9.02E-01
HsProRS; Log[inhibitor] (M) -9.000
  normalized TR-FRET ligand displacement signal, dose-response replicates (SI Fig 6): 9.73E-01 and 8.88E-01 and 1.05E+00
  TR-FRET dose-response, normalized signal (SI Fig 11): 9.24E-01 and 8.78E-01 and 8.94E-01
HsProRS; Log[inhibitor] (M) -9.301
  normalized TR-FRET ligand displacement signal, dose-response replicates (SI Fig 6): 9.62E-01 and 9.69E-01 and 9.04E-01
  TR-FRET dose-response, normalized signal (SI Fig 11): 9.15E-01 and 8.48E-01 and 8.61E-01
HsProRS; no added proline/ATP (-), 10 μM
  HsProRS % signal at 10 μM: 61.2%
PfcProRS; Log[inhibitor] (M) -5.000
  dose-response signal (normalized), SI Fig 8: 6.00E-01 and 6.56E-01 and 6.73E-01
PfcProRS; Log[inhibitor] (M) -5.301
  dose-response signal (normalized), SI Fig 8: 9.19E-01 and 8.61E-01 and 8.50E-01
PfcProRS; Log[inhibitor] (M) -5.601
  dose-response signal (normalized), SI Fig 8: 9.17E-01 and 9.92E-01 and 9.34E-01
PfcProRS; Log[inhibitor] (M) -5.904
  dose-response signal (normalized), SI Fig 8: 9.34E-01 and 1.02E+00 and 9.14E-01
PfcProRS; Log[inhibitor] (M) -6.208
  dose-response signal (normalized), SI Fig 8: 1.16E+00 and 1.11E+00 and 8.47E-01
PfcProRS; Log[inhibitor] (M) -6.509
  dose-response signal (normalized), SI Fig 8: 1.03E+00 and 1.08E+00 and 9.82E-01
PfcProRS; Log[inhibitor] (M) -6.796
  dose-response signal (normalized), SI Fig 8: 9.55E-01 and 9.28E-01 and 9.85E-01
PfcProRS; Log[inhibitor] (M) -7.108
  dose-response signal (normalized), SI Fig 8: 9.16E-01 and 1.02E+00 and 1.03E+00
PfcProRS; Log[inhibitor] (M) -7.409
  dose-response signal (normalized), SI Fig 8: 1.06E+00 and 1.03E+00 and 1.09E+00
PfcProRS; Log[inhibitor] (M) -7.710
  dose-response signal (normalized), SI Fig 8: 8.76E-01 and 1.01E+00 and 9.98E-01
PfcProRS; Log[inhibitor] (M) -8.000
  dose-response signal (normalized), SI Fig 8: 1.02E+00 and 1.09E+00 and 1.14E+00
PfcProRS; Log[inhibitor] (M) -8.301
  dose-response signal (normalized), SI Fig 8: 1.04E+00 (2×) and 9.07E-01
PfcProRS; Log[inhibitor] (M) -8.602
  dose-response signal (normalized), SI Fig 8: 1.06E+00 and 9.87E-01 and 1.02E+00
PfcProRS; Log[inhibitor] (M) -9.000
  dose-response signal (normalized), SI Fig 8: 9.95E-01 and 1.10E+00 and 1.11E+00
PfcProRS; Log[inhibitor] (M) -9.301
  dose-response signal (normalized), SI Fig 8: 9.71E-01 and 8.41E-01 and 1.04E+00
